Results taken from publication PMC9176662, “Design, synthesis, molecular modeling and biological evaluation of novel Benzoxazole-Benzamide conjugates via a 2-Thioacetamido linker as potential anti-proliferative agents, VEGFR-2 inhibitors and apoptotic inducers” (Journal of Enzyme Inhibition and Medicinal Chemistry, 2022).

Columns and labels:
Assay type in all cases: cell-based, human
MCF-7 cells [1] = assay: Anti-proliferative activity, SRB assay, MCF-7; settings: for IC50: SRB assay, 72 h exposure, mean ± SD of three separate experiments; for MCF-7 SI (selectivity index): ratio of IC50 for normal cells (WI-38) to IC50 for MCF-7
Description: Several of these derivatives were reported as acting as competitive inhibitors of different tyrosine kinases, with potent cytotoxic activity against various cell lines[58]^,[59]. […] Thus, in this study a novel series of benzoxazole-benzamide conjugates was initially evaluated for their potential anti-cancer activity against colon cancer cell line (HCT-116), breast cancer cell line (MCF-7) and normal human fibroblasts (WI-38), using the Sulforhodamine B colorimetric (SRB) assay.
2.1. Anti-proliferative activity against HCT-116 and MCF-7 human cancer cells lines.
The sulforhodamine B (SRB) assays were performed according to Skehan et al..
Briefly, exponentially growing cells were trypsinized, counted and seeded at the appropriate densities (5000 cells/100 μL/ well) into 96-well microtiter plates. Cells were incubated in a humidified atmosphere at 37 °C for 24 h. Then, the cells were exposed to the tested compounds at the desired concentrations (0.01, 0.1, 1, 10, and 100 μM) or to 1% dimethyl sulfoxide (DMSO) for 72 h. At the end of the treatment period, the media were removed, and the cells were fixed with 10% trichloroacetic acid at 4 °C for 1 h. Following, the cells were washed with tap water four times and incubated with SRB 0.4% for 30 min. Excess dye was removed by washing repeatedly with 1% (vol/vol) acetic acid. The protein-bound dye was dissolved in 10 mM Tris base solution for (optical density) OD determination at 510 nm using a Spectra Max plus Microplate Reader (Molecular Devices, CA). Cell viability was expressed relative to the untreated control cells. […]

MCF-7 cells [2] = assay: Cell cycle analysis by DNA flow cytometry, MCF-7; settings: MCF7, 24 h, compound at its IC50 (supplement: 10 μM); for %Pre-G1: control 3.41; for %G2-M: control 16.53; for %S: control 28.33; for %G0-G1: control 55.14
Description: It is clearly known that generally the cytotoxic agents exert their anti-proliferative effect via cell cycle arrest at a specific phase. In the present study, due to the excellent in-vitro anti-proliferative activity of conjugates 1 and 11 against both HCT-116 and MCF-7 cancer cell lines as well as their excellent VEGFR-2 inhibitory activities, cell cycle analysis have been carried out for both compounds. […]
2.3. Cell cycle analysis.
HCT-116 and MCF-7 cells were seeded at concentrations of 1 x 10^5 cells per well in a 6-well plate, and then incubated for 24 h. The cells were treated for 24 h with vehicles (0.1 percent DMSO) or 10 μM of compounds 1 or 11. Using ice-cold, 70 percent ethanol at 4 °C, cells were harvested and fixed for 12 h. Ethanol was removed, and the cells were washed by cold PBS.
Then, the cells were incubated in 0.5 mL of PBS containing 1 mg/mL Ranse for 30 min at 37 °C.
In the dark, the cells were stained with propidium iodide for 30 min. Flow cytometer was then used to detect contents of DNA [63]. […]

Bcl-2 = assay: Western blot of Bcl-2 expression in MCF-7; settings: MCF-7, Western blot, normalised to β-actin
Description: It is well known that the anti-apoptotic proteins Bcl-2 and Bcl-xL are mainly overexpressed in various types of cancer, causing survival of cancer cells and/or drug resistance. Therefore, inhibition of these proteins expression leads to cancer cell death and has been used as a strategy for anticancer drug development. In this study, the impact of compounds 1 and 11 on Bcl-2 and Bcl-xL expression in HCT-116 and MCF-7 cancer cell lines was examined using Western blot analysis and all the data were normalised to β-actin (Figure 9).
2.5. Impact of compounds 1 and 11 on the level of anti-apoptotic markers (Bcl-2, and Bcl-xL).
Gel electrophoresis and immuno-blot analysis of proteins (Western Blot) method was used to examine the effect of compounds 1 and 11 on the level of anti-apoptotic markers (Bcl-2, and Bcl-xL). […]
The cells were then immediately frozen at −20 °C for 1 h for further lysis and collected by cell scraper and sonicated 2×10s. Total protein concentrations were determined colorimetrically using Bradford method before proceeding to the western blotting. […] Briefly, the membranes were incubated for 1 min with a mixture of equal volumes from ECL solution A and ECL solution B. The chemiluminescent signals were captured using a CCD camera-based imager (Chemi Doc imager, Biorad, USA), and the band intensities were then measured with β-actin as an internal reference protein. […]

IC50 (MCF-7 cells [1]; Homo sapiens, MCF7, 72 h) [µM]	IC50 (MCF-7 cells [1]) [µM]	SMILES	MCF-7 SI (selectivity index) (MCF-7 cells [1])	%Pre-G1 (MCF-7 cells [2]) [%]	%G2-M (MCF-7 cells [2]) [%]	%S (MCF-7 cells [2]) [%]	%G0-G1 (MCF-7 cells [2]) [%]	Bcl-2 expression (Bcl-2)
7.8 ± 0.015	7.2 ± 0.01	O=C(CSc1nc2ccccc2o1)Nc1ccc(C(=O)NC2CCCCC2)cc1 [Compound 1]	5.8	19.78	29.62	29.72	40.66	inhibited
16.6 ± 0.013	–	O=C(CSc1nc2cc(Cl)ccc2o1)Nc1ccc(C(=O)Nc2ccc(Cl)cc2)cc1 [Compound 11]	6.2	16.93	25.24	30.92	43.84	inhibited
